According to ChEMBL document CHEMBL1201862, “PubChem BioAssay data set” (2004):
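48-hour exposure; five concentrations; linearly interpolated endpoints. Here, GI50 denotes the concentration required for 50% inhibition of growth.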 The source made the active and inactive calls. Rule as the data show it: active = GI50 up to about 1.1 µM and inactive = higher.

Key:
Experiment in all cases: inhibition of tumour cell growth, NCI panel, 48 h
SF-539 = tested on: SF-539
A549 = tested on: A549
HCC 2998 = tested on: HCC 2998
SK-OV-3 = tested on: SK-OV-3
NCI-H23 = tested on: NCI-H23
KM12 = tested on: KM12
Malme-3M = tested on: Malme-3M
OVCAR-4 = tested on: OVCAR-4
CAKI-1 = tested on: CAKI-1
SK-MEL-2 = tested on: SK-MEL-2
NCI/ADR-RES = tested on: NCI/ADR-RES
DU-145 = tested on: DU-145
SNB-19 = tested on: SNB-19
SK-MEL-28 = tested on: SK-MEL-28
MCF7 = tested on: MCF7
RPMI-8226 = tested on: RPMI-8226
IGROV-1 = tested on: IGROV-1
SF-295 = tested on: SF-295

O=C(NNCc1ccccc1O)c1ccccc1O
GI50 (SF-539): 16.5 µM (inactive) | GI50 (A549): 8.13 µM (inactive) | GI50 (HCC 2998): 4.01 µM (inactive) | GI50 (SK-OV-3): 7.71 µM (inactive) | GI50 (NCI-H23): 9.84 µM (inactive) | GI50 (KM12): 8.91 µM (inactive) | GI50 (Malme-3M): 15.1 µM (inactive) | GI50 (OVCAR-4): 26 µM (inactive) | GI50 (CAKI-1): 9.55 µM (inactive) | GI50 (SK-MEL-2): 4.65 µM (inactive) | GI50 (NCI/ADR-RES): 8.85 µM (inactive) | GI50 (DU-145): 3.22 µM (inactive) | GI50 (SNB-19): 36.6 µM (inactive) | GI50 (SK-MEL-28): 8.41 µM (inactive) | GI50 (MCF7): 12.5 µM (inactive) | GI50 (RPMI-8226): 3.27 µM (inactive) | GI50 (IGROV-1): 1.13 µM (inactive) | GI50 (SF-295): 2.51 µM (inactive)

O=S(=O)(O)CCS [MESNA]
GI50 (SF-539): > 100 µM (inactive) | GI50 (A549): > 100 µM (inactive) | GI50 (HCC 2998): > 100 µM (inactive) | GI50 (SK-OV-3): > 100 µM (inactive) | GI50 (NCI-H23): > 100 µM (inactive) | GI50 (KM12): > 100 µM (inactive) | GI50 (Malme-3M): > 100 µM (inactive) | GI50 (OVCAR-4): > 100 µM (inactive) | GI50 (CAKI-1): > 100 µM (inactive) | GI50 (SK-MEL-2): > 100 µM (inactive) | GI50 (NCI/ADR-RES): > 100 µM (inactive) | GI50 (DU-145): > 100 µM (inactive) | GI50 (SNB-19): > 100 µM (inactive) | GI50 (SK-MEL-28): > 100 µM (inactive) | GI50 (MCF7): > 100 µM (inactive) | GI50 (IGROV-1): > 100 µM (inactive) | GI50 (SF-295): > 100 µM (inactive)

COc1ccc(C2CC(c3ccccc3)=Nc3c(-c4ccccc4)nnn32)cc1 (centres undefined)
GI50 (SF-539): 85.3 µM (inactive) | GI50 (A549): 39.2 µM (inactive) | GI50 (SK-OV-3): > 100 µM (inactive) | GI50 (NCI-H23): > 100 µM (inactive) | GI50 (KM12): 46.9 µM (inactive) | GI50 (CAKI-1): 98.4 µM (inactive) | GI50 (SK-MEL-2): 44.4 µM (inactive) | GI50 (NCI/ADR-RES): > 100 µM (inactive) | GI50 (DU-145): > 100 µM (inactive) | GI50 (SNB-19): > 100 µM (inactive) | GI50 (MCF7): > 100 µM (inactive) | GI50 (RPMI-8226): 12.8 µM (inactive) | GI50 (IGROV-1): > 100 µM (inactive) | GI50 (SF-295): > 100 µM (inactive)

C[C@]12CCC(N3CCCC3)CC1=CC[C@@H]1[C@@H]2CC[C@]2(C)C(O)[C@H](n3ccnc3)C[C@@H]12 (some centres undefined)
GI50 (SF-539): 19 µM (inactive) | GI50 (A549): 66.5 µM (inactive) | GI50 (NCI-H23): 53.6 µM (inactive) | GI50 (KM12): > 10 µM (inactive) | GI50 (OVCAR-4): 73.6 µM (inactive) | GI50 (CAKI-1): > 100 µM (inactive) | GI50 (SK-MEL-2): 41.9 µM (inactive) | GI50 (NCI/ADR-RES): > 100 µM (inactive) | GI50 (DU-145): > 100 µM (inactive) | GI50 (SNB-19): > 100 µM (inactive) | GI50 (SK-MEL-28): 26.1 µM (inactive) | GI50 (MCF7): 45 µM (inactive) | GI50 (RPMI-8226): 30.8 µM (inactive) | GI50 (IGROV-1): 59.8 µM (inactive) | GI50 (SF-295): 35.2 µM (inactive)

C=C[C@]1(O)CCC[C@]2(C)C(=O)CCC12C (some centres undefined)
GI50 (SF-539): > 100 µM (inactive) | GI50 (A549): > 100 µM (inactive) | GI50 (HCC 2998): > 100 µM (inactive) | GI50 (SK-OV-3): > 100 µM (inactive) | GI50 (NCI-H23): > 100 µM (inactive) | GI50 (KM12): > 100 µM (inactive) | GI50 (Malme-3M): > 100 µM (inactive) | GI50 (OVCAR-4): > 100 µM (inactive) | GI50 (SK-MEL-2): > 100 µM (inactive) | GI50 (NCI/ADR-RES): > 100 µM (inactive) | GI50 (DU-145): > 100 µM (inactive) | GI50 (SNB-19): > 100 µM (inactive) | GI50 (SK-MEL-28): > 100 µM (inactive) | GI50 (MCF7): > 100 µM (inactive) | GI50 (RPMI-8226): > 100 µM (inactive) | GI50 (IGROV-1): > 100 µM (inactive) | GI50 (SF-295): > 100 µM (inactive)

O=C1OC(OC/C(Br)=C(/Br)COC2OC(=O)C(Cl)=C2Cl)C(Cl)=C1Cl (centres undefined)
GI50 (SF-539): 21.8 µM (inactive) | GI50 (A549): 22.1 µM (inactive) | GI50 (HCC 2998): 16.7 µM (inactive) | GI50 (SK-OV-3): 26.9 µM (inactive) | GI50 (NCI-H23): 4.21 µM (inactive) | GI50 (KM12): 8.75 µM (inactive) | GI50 (Malme-3M): 7.57 µM (inactive) | GI50 (OVCAR-4): 7.6 µM (inactive) | GI50 (CAKI-1): 3.15 µM (inactive) | GI50 (SK-MEL-2): 26.2 µM (inactive) | GI50 (NCI/ADR-RES): 6.7 µM (inactive) | GI50 (DU-145): 16.1 µM (inactive) | GI50 (SNB-19): 18.4 µM (inactive) | GI50 (SK-MEL-28): 8.51 µM (inactive) | GI50 (MCF7): 12.9 µM (inactive) | GI50 (RPMI-8226): 1.68 µM (inactive) | GI50 (IGROV-1): 13.7 µM (inactive) | GI50 (SF-295): 16.1 µM (inactive)

O=C(NC(C(F)(F)F)(C(F)(F)F)P(=O)(c1ccccc1)c1ccccc1)C(C(F)(F)F)C(F)(F)F
GI50 (SF-539): 22.8 µM (inactive) | GI50 (A549): 34.6 µM (inactive) | GI50 (HCC 2998): > 100 µM (inactive) | GI50 (SK-OV-3): > 100 µM (inactive) | GI50 (NCI-H23): 21.7 µM (inactive) | GI50 (KM12): 26.2 µM (inactive) | GI50 (Malme-3M): 14.2 µM (inactive) | GI50 (OVCAR-4): 37.7 µM (inactive) | GI50 (CAKI-1): 0.0131 µM (active) | GI50 (SK-MEL-2): 40.6 µM (inactive) | GI50 (NCI/ADR-RES): 21.6 µM (inactive) | GI50 (DU-145): > 100 µM (inactive) | GI50 (SNB-19): 71.3 µM (inactive) | GI50 (SK-MEL-28): 32.9 µM (inactive) | GI50 (MCF7): 26.2 µM (inactive) | GI50 (RPMI-8226): 33.6 µM (inactive) | GI50 (IGROV-1): 25.7 µM (inactive) | GI50 (SF-295): 48.4 µM (inactive)

O=[N+]([O-])C(=C1Nc2ccccc2N1)C(Cl)=C(Cl)Cl
GI50 (SF-539): > 100 µM (inactive) | GI50 (A549): > 100 µM (inactive) | GI50 (HCC 2998): > 100 µM (inactive) | GI50 (SK-OV-3): > 100 µM (inactive) | GI50 (NCI-H23): 84.5 µM (inactive) | GI50 (KM12): > 100 µM (inactive) | GI50 (Malme-3M): 30.3 µM (inactive) | GI50 (OVCAR-4): 27 µM (inactive) | GI50 (CAKI-1): > 100 µM (inactive) | GI50 (SK-MEL-2): > 100 µM (inactive) | GI50 (DU-145): > 100 µM (inactive) | GI50 (SNB-19): > 100 µM (inactive) | GI50 (SK-MEL-28): > 100 µM (inactive) | GI50 (MCF7): 39.7 µM (inactive) | GI50 (RPMI-8226): 70 µM (inactive) | GI50 (IGROV-1): > 100 µM (inactive) | GI50 (SF-295): > 100 µM (inactive)
